Positions of bridges follow the written chain, without caps; N, C: chain ends. Non-standard residues stand in square brackets, D forms with d. Chains are numbered I, II in the order given. *: point of attachment. Dolaproine = CO[C@@H]([C@@H]1CCCN1)[C@@H](C)C(=O)O; Dil = CC[C@H](C)[C@H](NC)[C@@H](CC(=O)O)OC; X1 = C[C@@H](N*)[C@@H](O)c1ccccc1; NMeV = CN[C@H](C(=O)O)C(C)C; Mpa = O=C(O)CCS
System: HeLa cells
Assay: Anti-proliferation Assay (2 hours treatment at pH 7.4 or 5.0, 72 hours growth, MTT)
Description: FIG. 3A, FIG. 3C and FIG. 3E show HeLa cells treated with pHLIP(WT)-MMAE, pHLIP(D25E)-MMAE, and MMAE(linker), respectively. FIG. 3B, FIG. 3D and FIG. 3F show MDA-MB-231 cells treated with pHLIP(WT)-MMAE, pHLIP(D25E)-MMAE, and MMAE(linker), respectively. Black columns represent cells treated at pH 7.4 and cells treated at low pH are shown in grey. For each condition, 3,000 cells/well (96-well plate) were seeded, allowed to adhere overnight, treated for 2 hours, washed once with media and grown for 72 hour in complete medium at physiologic pH. Cell viability was assessed with the MTT assay. All measurements were normalized to the media control (0 μM, pH 7.4), as 100% cell viability. Results are shown as mean±SD (n=6-9).
HeLa cells treated with pHLIP(WT)-MMAF (FIG. 9A), pHLIP(D25E)-MMAF (FIG. 9B), pHLIP(P20G)-MMAF (FIG. 9C), and pHLIP(R11Q)-MMAF (FIG. 9D). Circles represent cells treated at pH 7.4 and squares represent cells treated at pH 5.0. Results are shown as the mean±SEM (n=6-9).
Anti-proliferation Assay. HeLa and MDA-MB-231 cells were seeded in 96-well plates at a density of 3,000 cells/well and incubated overnight. Before treatment, construct aliquots were solubilized in an appropriate volume of DMEM without FBS (pH 7.4)—so that upon pH adjustment the desired treatment concentration is obtained—and gently sonicated for 30-60 seconds using a bath sonicator (Branson Ultrasonics). After removal of cell media, this treatment solution was added to each well and incubated at 37° C. for 5-10 minutes. The pH was then adjusted to the desired value using a pre-established volume of DMEM, pH 2.0 buffered with citric acid (final volume=50 μL) and the plate was incubated at 37° C. for 2 hours. After treatment, the media was removed, cells were washed once with 100 μL of complete DMEM, and 100 μL of complete medium was added to each well before returning the plate to the incubator. Treatment solutions were collected and their pH values measured using a micro-combination pH probe (Microelectrodes, Inc.). […] Cell viability was determined after 72 hours using the colorimetric MTT assay. Briefly, 10 μL of a 5 mg/mL MTT stock solution was added to the treated cells and incubated for 2 hours at 37° C. The resulting formazan crystals were solubilized in 200 μL DMSO and the absorbance measured at 580 nm using an Infinite 200 PRO microplate reader (Tecan). Cell viability was calculated against control cells treated with media at physiologic pH.
Inhibition of Cell Proliferation. The ability of pHLIP to move MMAE across the cell membrane and to inhibit cancer cell proliferation in concentration and pH-dependent manners was evaluated. Cell treatments for both pHLIP(WT)-MMAE and pHLIP(D25E)-MMAE constructs were carried out with conjugate concentrations ranging from 1.25 to 10 μM at either pH 7.4 or 5.0. After a 2-hour incubation at 37° C., the treatment media was replaced by fresh media, and cells were grown for an additional 72 hours at normal pH before assessing cell viability using the MTT assay. […] This treatment protocol is quite stringent when compared to the typical multi-days exposure treatments used with free drugs (FIG. 6A and FIG. 6B).

Q: “I: H-AAEQNPIYWARYADWLFTTPLLLLDLALLVDADEGTCG-OH / II: [Mpa][NMeV]V[Dil][Dolaproine]-X1 (disulfide I:37-II:1) [pHLIP(WT)-MMAE]” was tested. Which “effect on cell proliferation” value (pH 7.4, same conditions (1.25 to 10 μM)) did it give?
A: no or a moderate effect on cell proliferation

Q: What about the cytotoxicity (physiological pH, 5 μM) of the same substance?
A: only marginal cytotoxicity
